Our source for the inhibition and EC50 values is US20240140975A1, “ANTIVIRAL APPLICATION OF NUCLEOSIDE ANALOG OR COMBINATION FORMULATION CONTAINING NUCLEOSIDE ANALOG” (priority 2020, published 2024).

Each structure is given as a SMILES string. Where two headings read alike, the source gives them in different places. Where only a bound is given, the exact number is not on record here.

The subject of the assay is 2019 novel coronavirus (SARS-CoV-2). Briefly: microbe, parasite or virus in culture. Format: cell-based. The conditions noted are these: for inhibition at 5 µM: read-out: Inhibition Rate (5 μM); for inhibition at 10 µM: read-out: Inhibition Rate (10 μM).
[1] abbreviates: Severe acute respiratory syndrome coronavirus 2, Vero C1008, 24 h, 5 μM, Vero E6 cells, 24 h p.i.
The mark [2] stands for this setting: Severe acute respiratory syndrome coronavirus 2, Vero C1008, 24 h, 10 μM, Vero E6 cells, 24 h p.i.
The mark [3] stands for this setting: Severe acute respiratory syndrome coronavirus 2, Vero C1008, 24 h.
[4] abbreviates: Severe acute respiratory syndrome coronavirus 2, Vero C1008, Vero E6 cells, 24 h p.i., read-out: EC50.

Consider `N#C[C@@]1(c2cc(F)c3c(N)ncnn23)O[C@H](CO)[C@@H](O)[C@H]1O` [Compound A1], for which the inhibition – broadly, the relative decrease from the control value, in per cent – at 5 µM under setting [1] was determined as 80%. Also, the inhibition at 10 µM under setting [2] turned out to be 97%.

`N#C[C@@]1(c2cc(Cl)c3c(N)ncnn23)O[C@H](CO)[C@@H](O)[C@H]1O` [Compound A2]: the inhibition at 10 µM under setting [2] is < 50%.

Take `N#C[C@@]1(c2cc(I)c3c(N)ncnn23)O[C@H](CO)[C@@H](O)[C@H]1O` [Compound A3]: the inhibition at 10 µM under setting [2] was < 50%.

In the case of `N#C[C@@]1(c2ccc3c(=O)[nH]cnn23)O[C@H](CO)[C@@H](O)[C@H]1O` [Compound A4], the inhibition at 10 µM under setting [2] is < 50%.

With `[2H]C([2H])(O)[C@H]1O[C@@](C#N)(c2cc(F)c3c(N)ncnn23)[C@H](O)[C@@H]1O` [Compound A12], the inhibition at 5 µM under setting [1] was > 98%.

In the case of `CC(C)[C@H](N)C(=O)OC[C@H]1O[C@@](C#N)(c2ccc3c(N)ncnn23)[C@H](O)[C@@H]1O` [Compound A52], the inhibition at 5 µM under setting [1] was > 98%.

`[2H]C([2H])(OC(=O)[C@@H](N)C(C)C)[C@H]1O[C@@](C#N)(c2ccc3c(N)ncnn23)[C@H](O)[C@@H]1O` [Compound A77]: the inhibition at 5 µM under setting [1] was > 98%.

In the case of `CCC(CC)COC(=O)[C@H](C)N[P@](=O)(OC[C@H]1O[C@@](C#N)(c2cc(F)c3c(N)ncnn23)[C@H](O)[C@@H]1O)Oc1ccccc1` [Compound A84], the inhibition at 10 µM under setting [3] stood at 82%.

As for `N#C[C@@]1(c2ccc3c(N)ncnn23)O[C@H](COP(=O)(O)OP(=O)(O)OP(=O)(O)O)[C@@H](O)[C@H]1O` [Compound A109], under setting [3], the EC50 (commonly the concentration that produces a half-maximal response) was 580 nM, the inhibition at 5 µM was determined as 99% and the inhibition at 10 µM was determined as 99%.

For `NC(=O)[C@@]1(c2ccc3c(N)ncnn23)O[C@H](CO)[C@@H](O)[C@H]1O` [Compound A112], the inhibition at 10 µM under setting [2] was < 50%.

As for `[2H]C([2H])(O)[C@H]1O[C@@](C#N)(c2ccc3c(N)ncnn23)[C@H](O)[C@@H]1OC(=O)C(C)C` [Compound A164], under setting [1], the inhibition at 5 µM was determined as 99%. The EC50 under setting [4] came to 270 nM.

On to `[2H]C([2H])(OC(=O)C(C)C)[C@H]1O[C@@](C#N)(c2ccc3c(N)ncnn23)[C@H](OC(=O)C(C)C)[C@@H]1OC(=O)C(C)C` [Compound A171], for which, under setting [1], the inhibition at 5 µM was > 98%.

Turning to `[2H]c1cc([C@]2(C#N)O[C@H](C([2H])([2H])OC(=O)C(C)C)[C@@H](O)[C@H]2O)n2ncnc(N)c12` [Compound A180], the inhibition at 5 µM under setting [1] is > 98%.

Regarding `[2H]c1cc([C@]2(C#N)O[C@H](C([2H])([2H])OC(=O)[C@@H](N)C(C)C)[C@@H](O)[C@H]2O)n2ncnc(N)c12` [Compound A181], the inhibition at 5 µM under setting [1] is > 98%.

Turning to `[2H]c1cc([C@]2(C#N)O[C@H](C([2H])([2H])O)[C@@H](OC(=O)C(C)C)[C@H]2O)n2ncnc(N)c12` [Compound A188], under setting [1], the inhibition at 5 µM is > 98%.

As for `[2H]c1cc([C@]2(C#N)O[C@H](C([2H])([2H])OC(=O)C(C)C)[C@@H](OC(=O)C(C)C)[C@H]2OC(=O)C(C)C)n2ncnc(N)c12` [Compound A196], the inhibition at 5 µM under setting [1] was > 98%.

For `CC(C)[C@H](N)C(=O)O[C@H]1[C@@H](O)[C@](C#N)(c2ccc3c(N)ncnn23)O[C@@H]1CO` [Compound A212], the inhibition at 5 µM under setting [1] came out at 99%. In addition, the inhibition at 10 µM under setting [2] was found to be 99%. Further, the half-maximal effective concentration (EC50) under setting [4] turned out to be 110 nM.

For the compound `[2H]C([2H])(O)[C@H]1O[C@@](C#N)(c2ccc3c(N)ncnn23)[C@H](O)[C@@H]1OC(=O)[C@@H](N)C(C)C` [Compound A214], the inhibition at 5 µM under setting [1] came to 99%. Under setting [4], the EC50 was 110 nM.

In the case of `[2H]c1cc([C@]2(C#N)O[C@H](C([2H])([2H])O)[C@@H](OC(=O)[C@@H](N)C(C)C)[C@H]2O)n2ncnc(N)c12` [Compound A215], the inhibition at 5 µM under setting [1] is > 98%.

Turning to `NC(=O)c1nc(F)cnc1O` [Favipiravir, reference compound], the inhibition at 5 µM under setting [1] amounted to 0%. Also, the inhibition at 10 µM under setting [2] was < 20%.
